# Measurements: patent USRE47689E1, “Compounds for treating spinal muscular atrophy” (PTC Therapeutics, Inc., priority 2011, dated 2019)
# Tests used:
# [1] = test system: SMN2 minigene (full length SMN2 minigene mRNA containing SMN2 exon 7); experiment: SMN2 minigene mRNA splicing RT-qPCR assay in cultured cells; assay type: cell-based, human; conditions: Homo sapiens, HEK293-H; HEK293H cells stably transfected with SMN2-A minigene; 24 hours; 7-point concentration curve; 1.5-fold relative to vehicle-treated cells; read-out: EC1.5x for production of full length SMN2 mRNA
# Method in brief: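 Lysates → one-step RT-qPCR, minigene-specific primers (0.4 μM final) + GAPDH multiplex, 40 cycles. FL/GAPDH vs DMSO; EC1.5x, star-binned.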
# Smn protein = Smn protein assay in cultured cells (SMN HTRF); assay type: cell-based, human; conditions: 48 hours; for EC1.5x (concentration giving 1.5-fold Smn protein increase): SMA Type 1 patient fibroblast cells (GM03813), 7-point concentration curve, SMN HTRF, concentration producing 1.5 times Smn protein vs DMSO vehicle control, read-out: EC1.5x for Smn protein expression; for maximum fold (Fold) increase of Smn protein: SMA patient fibroblast cells, 7-point concentration data, fold increase relative to vehicle control (SMN HTRF)
# Method in brief: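 Smn in SMA fibroblast lysates, measured by anti-SMN HTRF after 48 h compound exposure; EC1.5x from fold change over vehicle.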
SMILES,melting point [°C],EC (1.5-fold) [1] [µM],EC1.5x (concentration giving 1.5-fold Smn protein increase) (Smn protein) [nM],maximum fold (Fold) increase of Smn protein (Smn protein)
"O=c1oc2cc(N3CCNCC3)ccc2cc1-c1cn2cccc(Cl)c2n1 [Compound 83, 3-(8-chloroimidazo[1,2-a]pyridin-2-yl)-7-(piperazin-1-yl)-2H-chromen-2-one]",196 to 198,0.3 to 1,1000 to 3000,**** (fold increase between >1.5 and ≤1.65)
"Cc1cccn2cc(-c3cc4ccc(N5CCN(C)CC5)cc4oc3=O)nc12 [Compound 84, 3-(8-methylimidazo[1,2-a]pyridin-2-yl)-7-(4-methylpiperazin-1-yl)-2H-chromen-2-one]",224 to 226,0.3 to 1,1000 to 3000,*** (fold increase between >1.35 and ≤1.5)
"CN1CCN(c2ccc3cc(-c4cn5cccnc5n4)c(=O)oc3c2)CC1 [Compound 87, 3-(imidazo[1,2-a]pyrimidin-2-yl)-7-(4-methylpiperazin-1-yl)-2H-chromen-2-one]",> 310,0.3 to 1,1000 to 3000,**** (fold increase between >1.5 and ≤1.65)
"O=c1oc2cc(N3CCNCC3)ccc2cc1-c1cn2ccsc2n1 [Compound 88, 3-(imidazo[2,1-b][1,3]thiazol-6-yl)-7-(piperazin-1-yl)-2H-chromen-2-one]",275 to 280,< 0.1,1000 to 3000,*** (fold increase between >1.35 and ≤1.5)
"O=c1oc2cc(N3CCNCC3)ccc2cc1-c1cccc(C(F)(F)F)n1 [Compound 90, 7-(piperazin-1-yl)-3-[6-(trifluoromethyl)pyridin-2-yl]-2H-chromen-2-one]",158 to 160,0.3 to 1,,*** (fold increase between >1.35 and ≤1.5)
"O=c1oc2cc(N3CCNCC3)ccc2cc1-c1ccc2[nH]ncc2c1 [Compound 91, 3-(1H-indazol-5-yl)-7-(piperazin-1-yl)-2H-chromen-2-one]",250 to 252,0.3 to 1,,** (fold increase between >1.2 and ≤1.35)
"CN1CCCN(c2ccc3cc(-c4cn5cc(Cl)ccc5n4)c(=O)oc3c2)CC1 [Compound 92, 3-(6-chloroimidazo[1,2-a]pyridin-2-yl)-7-(4-methyl-1,4-diazepan-1-yl)-2H-chromen-2-one]",186 to 189,1 to 3,,*** (fold increase between >1.35 and ≤1.5)
"C[C@@H]1CN[C@@H](C)CN1c1ccc2cc(-c3cn4cc(Cl)ccc4n3)c(=O)oc2c1 [Compound 93, 3-(6-chloroimidazo[1,2-a]pyridin-2-yl)-7-[(2R,5S)-2,5-dimethylpiperazin-1-yl]-2H-chromen-2-one]",245 to 247,1 to 3,,** (fold increase between >1.2 and ≤1.35)
"CN1CCN(c2ccc3cc(-c4cn5cc(Cl)ccc5n4)c(=O)oc3c2)CC1 [Compound 94, 3-(6-chloroimidazo[1,2-a]pyridin-2-yl)-7-(4-methylpiperazin-1-yl)-2H-chromen-2-one]",290 to 292,3 to 30,,*** (fold increase between >1.35 and ≤1.5)
"CCN1CCN(c2ccc3cc(-c4cn5cc(C)ccc5n4)c(=O)oc3c2)CC1 [Compound 95, 7-(4-ethylpiperazin-1-yl)-3-(6-methylimidazo[1,2-a]pyridin-2-yl)-2H-chromen-2-one]",266 to 269,1 to 3,< 300,**** (fold increase between >1.5 and ≤1.65)
"Cc1cn2cc(-c3cc4ccc(N5CCNCC5)cc4oc3=O)nc2s1 [Compound 96, 3-(2-methylimidazo[2,1-b][1,3]thiazol-6-yl)-7-(piperazin-1-yl)-2H-chromen-2-one]",> 310,0.1 to 0.3,3000 to 10000,*** (fold increase between >1.35 and ≤1.5)
"Cc1cn2cc(-c3cc4ccc(N5CCN(C)CC5)cc4oc3=O)nc2s1 [Compound 97, 3-(2-methylimidazo[2,1-b][1,3]thiazol-6-yl)-7-(4-methylpiperazin-1-yl)-2H-chromen-2-one]",> 300,1 to 3,3000 to 10000,*** (fold increase between >1.35 and ≤1.5)
"Cc1csc2nc(-c3cc4ccc(N5CCNCC5)cc4oc3=O)cn12 [Compound 98, 3-(3-methylimidazo[2,1-b][1,3]thiazol-6-yl)-7-(piperazin-1-yl)-2H-chromen-2-one]",> 300,1 to 3,1000 to 3000,*** (fold increase between >1.35 and ≤1.5)
"O=c1oc2cc(CNC(CO)CO)ccc2cc1-c1nc2ccccc2s1 [Compound 99, 3-(1,3-benzothiazol-2-yl)-7-{[(1,3-dihydroxypropan-2-yl)amino]methyl}-2H-chromen-2-one]",194 to 197,3 to 30,,* (maximum fold increase of ≤1.2)
"CCN1CCN(c2ccc3cc(-c4cn5cccc(C)c5n4)c(=O)oc3c2)CC1 [Compound 100, 7-(4-ethylpiperazin-1-yl)-3-(8-methylimidazo[1,2-a]pyridin-2-yl)-2H-chromen-2-one]",211 to 213,0.3 to 1,,** (fold increase between >1.2 and ≤1.35)
"CCCN1CCN(c2ccc3cc(-c4cn5cccc(C)c5n4)c(=O)oc3c2)CC1 [Compound 101, 3-(8-methylimidazo[1,2-a]pyridin-2-yl)-7-(4-propylpiperazin-1-yl)-2H-chromen-2-one]",249 to 251,1 to 3,,** (fold increase between >1.2 and ≤1.35)
"O=c1oc2cc(N3CCN(CCO)CC3)ccc2cc1-c1cn2cc(Cl)ccc2n1 [Compound 104, 3-(6-chloroimidazo[1,2-a]pyridin-2-yl)-7-[4-(2-hydroxyethyl)piperazin-1-yl]-2H-chromen-2-one]",245 to 250,3 to 30,,*** (fold increase between >1.35 and ≤1.5)
"C[C@@H]1CN(c2ccc3cc(-c4cn5cc(Cl)ccc5n4)c(=O)oc3c2)C[C@H](C)N1 [Compound 105, 3-(6-chloroimidazo[1,2-a]pyridin-2-yl)-7-[(3R,5S)-3,5-dimethylpiperazin-1-yl]-2H-chromen-2-one]",220 to 225,1 to 3,300 to 1000,**** (fold increase between >1.5 and ≤1.65)
"C[C@@H]1CN(c2ccc3cc(-c4cn5cccnc5n4)c(=O)oc3c2)C[C@H](C)N1 [Compound 107, 7-[(3R,5S)-3,5-dimethylpiperazin-1-yl]-3-(imidazo[1,2-a]pyrimidin-2-yl)-2H-chromen-2-one]",256 to 258,0.1 to 0.3,300 to 1000,**** (fold increase between >1.5 and ≤1.65)
"CCN1CCN(c2ccc3cc(-c4cn5cccnc5n4)c(=O)oc3c2)CC1 [Compound 108, 7-(4-ethylpiperazin-1-yl)-3-(imidazo[1,2-a]pyrimidin-2-yl)-2H-chromen-2-one]",300 to 302,1 to 3,300 to 1000,**** (fold increase between >1.5 and ≤1.65)
"CCCN1CCN(c2ccc3cc(-c4cn5cccnc5n4)c(=O)oc3c2)CC1 [Compound 109, 3-(imidazo[1,2-a]pyrimidin-2-yl)-7-(4-propylpiperazin-1-yl)-2H-chromen-2-one]",291 to 293,1 to 3,3000 to 10000,*** (fold increase between >1.35 and ≤1.5)
"CN1CCN(c2ccc3cc(-c4cn5ccc(C(F)(F)F)cc5n4)c(=O)oc3c2)CC1 [Compound 115, 7-(4-methylpiperazin-1-yl)-3-[7-(trifluoromethyl)imidazo[1,2-a]pyridin-2-yl]-2H-chromen-2-one]",274 to 280,0.3 to 1,,*** (fold increase between >1.35 and ≤1.5)
"C[C@@H]1CN(c2ccc3cc(-c4cn5ccc(C(F)(F)F)cc5n4)c(=O)oc3c2)C[C@H](C)N1 [Compound 116, 7-[(3R,5S)-3,5-dimethylpiperazin-1-yl]-3-[7-(trifluoromethyl)imidazo[1,2-a]pyridin-2-yl]-2H-chromen-2-one]",257 to 264,0.3 to 1,,** (fold increase between >1.2 and ≤1.35)
"CN1CCCN(c2ccc3cc(-c4cn5cccnc5n4)c(=O)oc3c2)CC1 [Compound 118, 3-(imidazo[1,2-a]pyrimidin-2-yl)-7-(4-methyl-1,4-diazepan-1-yl)-2H-chromen-2-one]",252 to 254,0.1 to 0.3,< 300,***** (fold increase >1.65)
